Data: patent US20060229316A1, “Novel antiinfective compounds, process for their preparation and pharmaceutical compositions containing them” (priority 2002, published 2006)
In brackets after ≈: the same amount, converted by molar mass. Read-outs that look alike come from different tables or passages of the source.

Legend:
[1] = tested on: Enterococcus faecalis ATCC 29212; test: MIC by microbroth dilution, EF; type: cell-based
From the text: (§1) The pharmaceutically acceptable compounds of the present invention are useful antibacterial agents having a good spectrum of activity in vitro and against standard Gram-positive organisms, which are used to screen for activity against pathogenic bacteria. […] The antibacterial spectrum and potency of a particular compound may be determined in a standard test system. The activity is described in terms of the minimum inhibitory concentration (MIC) determined by microbroth dilution technique as per NCCLS standards.
(§2) The minimum inhibitory concentrations (MIC's) of the compounds for the microorganisms listed in Table A were determined by preparing working solution for each compound of concentration of 128 μg/ml after dissolving it in DMSO. Two-fold serial dilution of the above solution was prepared in duplicates, using Mueller Hinton Broth, in 96 well Tissue culture plate with cover flat bottom wells to give a final volume of […] and concentration of compound ranging from 64 μg/ml-0.12 μg/ml. 30 μg/ml of Standard suspension of each organism which was prepared with turbidity equivalent to the 1:10 diluted 0.5 McFarland standard with density 10^7 CFU/ml, was added to each well to get approximately a density of 10^5 CFU/ml. These 96-well Tissue culture plate containing the test samples and positive and negative controls, were incubated at 37° C. for 16-18 hrs. The wells were visually inspected for growth and were also read at 630 nm by Automated Microplate Reader [(EL800) Trinity biotech.] and the MIC's were recorded as the lowest concentration of drug which inhibits the growth of bacteria.
(§3) The compounds of the present invention have useful activity against a variety of organisms. The in vitro activity of compounds of the present invention can be assessed by standard testing procedures such as the determination of minimum inhibitory concentration (MIC) by standard “Microdilution method” as described elsewhere in the specification. The pharmacokinetic profiling of the compounds were also done according to the protocol described in this specification. The activities of representative compounds of the present invention are given below in the following table.
EF: Enterococcus faecalis ATCC 29212

[2] = tested on: Staphylococus aureus ATCC 33591; test: MIC by microbroth dilution, SA; type: cell-based, Staphylococcus aureus; conditions: for MIC: Staphylococcus aureus
From the text: as §1, §2, §3
SA: Staphylococus aureus ATCC 33591

[3] = tested on: Staphylococcus epidermidis ATCC 12228; test: MIC by microbroth dilution, SE; type: cell-based
From the text: as §1, §2, §3
SE: Staphylococcus epidermidis ATCC 12228

[4] = tested on: Methicillin resistant Staphylococus aureus 653SP; test: MIC by microbroth dilution, first column headed SA (guide: MRSA); type: cell-based, Staphylococcus aureus; conditions: for MIC: Staphylococcus aureus, read-out: MIC (μg/ml) in vitro activity in gram positive organisms, SA
From the text: as §1, §2, §3
MRSA: Methicillin resistant Staphylococus aureus 653SP

[5] = Enterococcus faecalis, ATCC29212, read-out: MIC (μg/ml) in vitro activity in gram positive organisms, EF
[6] = ATCC33591, read-out: MIC (μg/ml) in vitro activity in gram positive organisms, SA
[7] = Staphylococcus epidermidis, ATCC12228, read-out: MIC (μg/ml) in vitro activity in gram positive organisms, SE
[8] = Enterococcus faecalis ATCC 29212, Mueller Hinton Broth, 37° C., 16-18 hrs
[9] = Staphylococus aureus ATCC 33591, Mueller Hinton Broth, 37° C., 16-18 hrs
[10] = SA, Mueller Hinton Broth, 37° C., 16-18 hrs
[11] = ATCC29212, Enterococcus faecalis ATCC 29212, Mueller Hinton Broth, 37° C., 16-18 hrs, read-out: MIC (μg/ml) in vitro activity in gram positive organisms, EF
[12] = ATCC33591, Staphylococus aureus ATCC 33591, Mueller Hinton Broth, 37° C., 16-18 hrs, read-out: MIC (μg/ml) in vitro activity in gram positive organisms, SA
[13] = ATCC12228, Staphylococcus epidermidis ATCC 12228, Mueller Hinton Broth, 37° C., 16-18 hrs, read-out: MIC (μg/ml) in vitro activity in gram positive organisms, SE

| MIC [1, 11] [µg/mL] | MIC [2, 12] [µg/mL] | MIC [3, 13] [µg/mL] | MIC [4, 10] [µg/mL] | Compound | other results |
| --- | --- | --- | --- | --- | --- |
|  |  |  |  | CC(=S)NC[C@H]1CN(c2ccc(N3CCN(C(=O)C=Cc4ccc(O)cc4)CC3)c(F)c2)C(=O)O1 [Compound 64, (S)-N-[3-(3-Fluoro-4-{4-[3-(4-hydroxyphenyl)-acryloyl]-piperazin-1-yl]-phenyl)-2-oxo-oxazolidin-5-ylmethyl]thioacetamide] | MIC [1, 5]: 0.25 µg/mL (≈ 0.501 µM); MIC [2, 6]: 0.25 µg/mL (≈ 0.501 µM); MIC [3, 7]: 0.25 µg/mL (≈ 0.501 µM); MIC [4]: 0.5 µg/mL (≈ 1 µM) |
|  |  |  |  | (S)-N-[3-{4-(4-(3-Benzo[1,3]-dioxol-5-yl-acryloyl)-piperazin-1-yl}-3-fluorophenyl]-2-oxo-oxazolidin-5-yl methyl thiourea [Compound 125] | MIC (μg/ml) in vitro activity in gram positive organisms, EF [1, 8]: 0.5 µg/mL; MIC (μg/ml) in vitro activity in gram positive organisms, SA [2, 9]: 4 µg/mL; MIC (μg/ml) in vitro activity in gram positive organisms, SA [4, 10]: 1 µg/mL |
| 0.5 (≈ 1.06 µM) | 0.5 (≈ 1.06 µM) | 0.5 (≈ 1.06 µM) | 1 (≈ 2.12 µM) | CC(=S)NC[C@H]1CN(c2ccc(N3CCN(C(=O)C=Cc4ccco4)CC3)c(F)c2)C(=O)O1 [Compound 66, (S)-N-[3-(3-Fluoro-4-{4-[3-(furan-2-yl)-acryloyl]-piperazin-1-yl]-phenyl)-2-oxo-oxazolidin-5-ylmethyl]thioacetamide] |  |
| 0.25 (≈ 0.511 µM) | 1 (≈ 2.04 µM) | 0.5 (≈ 1.02 µM) | 1 (≈ 2.04 µM) | NC(=S)NC[C@H]1CN(c2ccc(N3CCN(C(=O)/C=C/c4cccs4)CC3)c(F)c2)C(=O)O1 [Compound 123, (3/-N-[3-(3-Fluoro-4-{4-(thiophen-2-yl)-acryloyl]-piperazineyl]-phenyl)-2-oxo-oxazolidin-5-yl-methyl]thiourea] | melting point: 154 to 157 °C |
|  |  |  |  | CC(=O)NC[C@H]1CN(c2ccc(N3CCN(C/C=C/c4ccccc4)CC3)c(F)c2)C(=O)O1 (stereo in doubt) | melting point: 134 to 136 °C |
| 1 (≈ 1.91 µM) | 1 (≈ 1.91 µM) | 0.5 (≈ 0.957 µM) | 1 (≈ 1.91 µM) | NC(=S)NC[C@H]1CN(c2ccc(N3CCN(C(=O)C=Cc4c[nH]c5ccccc45)CC3)c(F)c2)C(=O)O1 [Compound 126, (S)-N-[3-(3-Fluoro-4-{4-[3-(1H-indol-3-yl)-acryloyl]-piperazin-1-yl]-phenyl)-2-oxo-oxazolidin-5-ylmethyl]thiourea] |  |
|  |  |  |  | CC(=O)NC[C@H]1CN(c2ccc(N3CCN(C(=O)CO)CC3)c(F)c2)C(=O)O1 [Eperzolid, reference compound] | MIC (μg/ml) in vitro activity in gram positive organisms, EF [1, 8]: 2 µg/mL (≈ 5.07 µM); MIC (μg/ml) in vitro activity in gram positive organisms, SA [2, 9]: 4 µg/mL (≈ 10.1 µM); MIC (μg/ml) in vitro activity in gram positive organisms, SA [4, 10]: 2 µg/mL (≈ 5.07 µM) |
| 1 (≈ 2.12 µM) |  | 1 (≈ 2.12 µM) | 0.5 (≈ 1.06 µM) | CC(=O)NC[C@H]1CN(c2ccc(N3CCN(C(=O)/C=C/c4cccs4)CC3)c(F)c2)C(=O)O1 [Compound 01] | melting point: 223 to 225 °C |
| 1 (≈ 2.11 µM) | 2 (≈ 4.22 µM) | 0.5 (≈ 1.06 µM) | 2 (≈ 4.22 µM) | NC(=S)NC[C@H]1CN(c2ccc(N3CCN(C(=O)C=Cc4ccco4)CC3)c(F)c2)C(=O)O1 [Compound 127, (S)-N-[3-(3-Fluoro-4-{4-[3-(furan-2-yl)-acryloyl]-piperazin-1-yl]-phenyl)-2-oxo-oxazolidin-5-ylmethyl]thiourea] |  |
|  |  |  |  | CC(=O)NC[C@H]1CN(c2ccc(N3CCN(C(=O)C=Cc4ccc(O)cc4)CC3)c(F)c2)C(=O)O1 [Compound 05, (S)-N-[3-(3-Fluoro-4-{4-[3-(4-hydroxyphenyl)-acryloyl]-piperazin-1-yl]-phenyl)-2-oxo-oxazolidin-5-ylmethyl]acetamide] | MIC [1, 5]: 0.5 µg/mL (≈ 1.04 µM); MIC [2, 6]: 2 µg/mL (≈ 4.14 µM); MIC [3, 7]: 0.5 µg/mL (≈ 1.04 µM); MIC [4]: 1 µg/mL (≈ 2.07 µM) |
|  |  |  |  | (S)-N-[3-(3-Fluoro-4-{4-[3-(4-hydroxyphenyl)-acryloyl]-piperazin-1-yl]-phenyl)-2-oxo-oxazolidin-5-yl methyl thiourea [Compound 124] | MIC (μg/ml) in vitro activity in gram positive organisms, EF [1, 8]: 1 µg/mL; MIC (μg/ml) in vitro activity in gram positive organisms, SA [2, 9]: 1 µg/mL; MIC (μg/ml) in vitro activity in gram positive organisms, SA [4, 10]: 1 µg/mL |
| 4 (≈ 11.9 µM) | 4 (≈ 11.9 µM) | 4 (≈ 11.9 µM) | 2 (≈ 5.93 µM) | CC(=O)NC[C@H]1CN(c2ccc(N3CCOCC3)c(F)c2)C(=O)O1 [Linezolid, reference compound] |  |
| 0.5 (≈ 1.02 µM) | 0.5 (≈ 1.02 µM) | 2 (≈ 4.09 µM) | 1 (≈ 2.05 µM) | CC(=S)NC[C@H]1CN(c2ccc(N3CCN(C(=O)C=Cc4cccs4)CC3)c(F)c2)C(=O)O1 [Compound 70, (S)-N-[3-(3-Fluoro-4-{4-[3-(thiophen-2-yl)-acryloyl]-piperazinyl]-phenyl)-2-oxo-oxazolidin-5-ylmethyl]thioacetamide] |  |
